Series [1] has as its system Trypanosoma cruzi. As to the kind of experiment: Induction of mitochondrial membrane depolarization in Trypanosoma cruzi strain Y trypomastigotes assessed as reduction in mitochondrial membrane potential at 50 uM measured after 120 mins by JC-1 probe based flow cytometry. Format: functional, organism-based.
The nature of series [2]: Cytotoxicity against mouse NCTC-929 cells assessed as reduction in cell viability incubated for 48 hrs by MTT assay. The series is classed as cell-based. As to conditions: NCTC-929 (L929) cells. For orientation: Tetrazolium assays rely on reduction of a dye to a coloured formazan, in cell work by metabolically active cells.
The nature of series [3]: Selectivity index, ratio of CC50 for mouse NCTC-929 cells to IC50 for Trypanosoma cruzi amastigotes infected in BA;B/c mouse peritoneal macrophages. As to conditions: read-out: Ratio CC50/IC50. Format: toxicity.
The test system of series [4] is Trypanosoma cruzi. As to the kind of experiment: Antitrypanosomal activity against Trypanosoma cruzi amastigotes infected in BALB/c mouse peritoneal macrophages assessed as decrease in parasitic load with in the cell incubated for 48 hrs by Giemsa staining based light microscopy. Format: functional, organism-based.
In series [5] the test system is Trypanosoma cruzi. As to the kind of experiment: Antitrypanosomal activity against Trypanosoma cruzi strain Y trypomastigotes maintained in Rhesus monkey […] cells assessed as decrease in trypomastigotes cell viability incubated for 24 hrs by resazurin dye based colorimetric assay. The series is classed as functional, organism-based. A general note: Resazurin is reduced to fluorescent resorufin, in cell work by metabolically active cells.

Series [6] relates to Trypanosoma cruzi. As to the kind of experiment: Induction of plasma membrane electric potential depolarization in Trypanosoma cruzi strain Y trypomastigotes at 0.5 mg/ml measured after 60 mins by DiSBAC2(3) dye based flow cytometry. Format: functional.

Calls of active or inactive are those of the source. The rule behind the calls is not given here. Square brackets hold non-standard residues; d marks the D form. Peptide text beside a SMILES is read from it. * marks the point of attachment. NHCH2CH2OH = OCCN*; For = O=C*

These results are taken from ChEMBL document CHEMBL4350979, “Dehydrodieugenol B derivatives as antiparasitic agents: Synthesis and biological activity against Trypanosoma cruzi” (Eur J Med Chem, 2019).

On to `N#CC(C#N)=NNc1cccc(Cl)c1`, for which the inhibition result in the series with Trypanosoma cruzi [1] is “Active”.

Usually CC50 stands for the concentration that lowers cell viability or growth by half. In general, IC50 refers to the concentration at which inhibition is half-maximal. As for `O=C(Cn1ccnc1[N+](=O)[O-])NCc1ccccc1` [BENZNIDAZOLE], the CC50 at 48 h in series [2] turned out to be 191 µM. Moreover, in series [3], the selectivity ratio was found to be 38.1. Besides, the IC50 was 5 µM in the series with Trypanosoma cruzi [4] and 17.7 µM in the series with Trypanosoma cruzi [5].

Take `CCCOc1c(OC)cc(CCC)cc1Oc1ccc(CCC)cc1OC`: in series [2], the CC50 at 48 h was more than 200 µM. The results for the IC50 in the series on Trypanosoma cruzi [4] and in the series on Trypanosoma cruzi [5] were more than 30 µM and more than 100 µM, respectively.

Regarding `CC(C)C[C@@H](NC(=O)[C@H](C)NC(=O)CNC(=O)[C@@H](NC=O)C(C)C)C(=O)N[C@@H](C)C(=O)N[C@@H](C(=O)N[C@H](C(=O)N[C@@H](C(=O)N[C@@H](Cc1c[nH]c2ccccc12)C(=O)N[C@H](CC(C)C)C(=O)N[C@@H](Cc1c[nH]c2ccccc12)C(=O)N[C@H](CC(C)C)C(=O)N[C@@H](Cc1c[nH]c2ccccc12)C(=O)N[C@H](CC(C)C)C(=O)N[C@@H](Cc1c[nH]c2ccccc12)C(=O)NCCO)C(C)C)C(C)C)C(C)C` [GRAMICIDIN D] (For-VGA[dL]A[dV]V[dV]W[dL]W[dL]W[dL]W-NHCH2CH2OH), the Activity in the series with Trypanosoma cruzi [6] is on record as 100%.

Turning to `CCCc1ccc(Oc2cc(CCC)cc(OC)c2OC)c(OC)c1`, the CC50 at 48 h in series [2] was more than 200 µM. Further, the selectivity ratio in series [3] is more than 15.4. Besides, the IC50 with Trypanosoma cruzi [4] was 13.3 µM; with Trypanosoma cruzi [5] it was more than 100 µM.

`COc1cc(CC(C)O)ccc1Oc1cc(CC(C)O)cc(OC)c1OC` (stereo unspecified): the CC50 at 48 h in series [2] was more than 200 µM. The IC50 in the series with Trypanosoma cruzi [4] was more than 30 µM; in the series on Trypanosoma cruzi [5], more than 100 µM.
